Experimental data as given in patent US11051515B2, “3-acyl-benzamides and their use as herbicides” (Bayer Aktiengesellschaft, priority 2017, dated 2021).

Key:
PHBPU [1] = test: Pre-emergence action against PHBPU; type: in vivo, Pharbitis purpurea; details: Dosage 320 g/ha, pre-emergence
How it was run: (§1)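 Seeds sown in sandy loam in wood-fiber pots and covered with soil. Greenhouse growth; visual damage scored after 3 weeks versus untreated controls (100% = dead, 0% = like control).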

MATIN [2] = test: Post-emergence action against MATIN; type: in vivo, Matricaria inodora; details: post-emergence, dosage 80 g/ha, visual assessment about 3 weeks after treatment vs untreated controls
How it was run: (§2)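 Post-emergence foliar spray on greenhouse plants at the one-leaf stage, using wettable-powder or emulsion-concentrate formulations in water (600 to […], plus 0.2% wetting agent). Damage scored by eye roughly 3 weeks later against untreated plants: 0% = like control, 100% = dead.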

SETVI [3] = test: Pre-emergence action against SETVI; type: in vivo, Setaria viridis; details: pre-emergence, dosage 320 g/ha, scored visually after 3 weeks vs untreated controls
How it was run: as §1

STEME [4] = test: Post-emergence action against STEME; type: in vivo, Stellaria media; details: post-emergence, dosage 80 g/ha
How it was run: as §2

ECHCG [5] = test: Post-emergence action against ECHCG; type: in vivo, Echinochloa crus-galli; details: post-emergence, dosage 80 g/ha, visual assessment about 3 weeks after treatment vs untreated controls
How it was run: as §2

SETVI [6] = test: Post-emergence action against SETVI; type: in vivo, Setaria viridis; details: post-emergence, dosage 80 g/ha, visual assessment about 3 weeks after treatment vs untreated controls
How it was run: as §2

VIOTR [7] = test: Post-emergence action against VIOTR; type: in vivo, Viola tricolor; details: post-emergence, dosage 80 g/ha
How it was run: as §2

ABUTH [8] = test: Post-emergence action against ABUTH; type: in vivo, Abutilon theophrasti; details: post-emergence, dosage 80 g/ha, visual assessment about 3 weeks after treatment vs untreated controls
How it was run: as §2

VERPE [9] = test: Post-emergence action against VERPE; type: in vivo, Veronica persica; details: dosage 80 g/ha
How it was run: as §2

VERPE [10] = test: Pre-emergence action against VERPE; type: in vivo, Veronica persica; details: Dosage 320 g/ha, pre-emergence
How it was run: as §1

STEME [11] = test: Pre-emergence action against STEME; type: in vivo, Stellaria media; details: Dosage 320 g/ha, pre-emergence
How it was run: as §1

CYPES [12] = test: Post-emergence action against CYPES; type: in vivo, Cyperus esculentus; details: post-emergence, dosage 80 g/ha, visual assessment about 3 weeks after treatment vs untreated controls
How it was run: as §2

ALOMY [13] = test: Pre-emergence action against ALOMY; type: in vivo, Alopecurus myosuroides; details: dosage 320 g/ha, pre-emergence, scored visually after 3 weeks vs untreated controls, 100% = plants have died, 0% = like control plants
How it was run: as §1

AMARE [14] = test: Pre-emergence action against AMARE; type: in vivo, Amaranthus retroflexus; details: pre-emergence, dosage 320 g/ha, scored visually after 3 weeks vs untreated controls
How it was run: as §1

AMARE [15] = test: Post-emergence action against AMARE; type: in vivo, Amaranthus retroflexus; details: post-emergence, dosage 80 g/ha, visual assessment about 3 weeks after treatment vs untreated controls
How it was run: as §2

CYPES [16] = test: Pre-emergence action against CYPES; type: in vivo, Cyperus esculentus; details: pre-emergence, dosage 320 g/ha, scored visually after 3 weeks vs untreated controls
How it was run: as §1

PHBPU [17] = test: Post-emergence action against PHBPU; type: in vivo, Pharbitis purpurea; details: post-emergence, dosage 80 g/ha
How it was run: as §2

ECHCG [18] = test: Pre-emergence action against ECHCG; type: in vivo, Echinochloa crus-galli; details: pre-emergence, dosage 320 g/ha, scored visually after 3 weeks vs untreated controls
How it was run: as §1

ALOMY [19] = test: Post-emergence action against ALOMY; type: in vivo, Alopecurus myosuroides; details: Dosage 80 g/ha, post-emergence
Protocol: (§3) Seeds of monocotyledonous and dicotyledonous weed and crop plants are laid out in sandy loam soil in wood-fiber pots, covered with soil and cultivated in a greenhouse under good growth conditions. 2 to 3 weeks after sowing, the test plants are treated at the one-leaf stage. The compounds of the invention, formulated in the form of wettable powders (WP) or as emulsion concentrates (EC), are then sprayed onto the green parts of the plants in the form of an aqueous suspension or emulsion at a water application rate equating to […], with addition of 0.2% wetting agent. After the test plants have been left to stand in the greenhouse under optimal growth conditions for about 3 weeks, the action of the preparations is assessed visually in comparison to untreated controls (herbicidal action in percent (%): 100% activity=the plants have died, 0% activity=like control plants). […] At the same time, inventive compounds leave Gramineae crops such as barley, wheat, rye, millet/Sorghum, corn or rice virtually undamaged when applied post-emergence, even at high active ingredient dosages. In addition, some substances are also harmless to dicotyledonous crops such as soya, cotton, oilseed rape, sugar beet or potatoes. Some of the compounds according to the invention have high selectivity and are therefore suitable for controlling unwanted vegetation in agricultural crops by the post-emergence method. The data of Tables B18 to B34 below illustrate, in an exemplary manner, the […] herbicidal action of the compounds according to the invention, the herbicidal activity being stated in percent.

MATIN [20] = test: Pre-emergence action against MATIN; type: in vivo, Matricaria inodora; details: Dosage 320 g/ha, pre-emergence
How it was run: as §1

ABUTH [21] = test: Pre-emergence action against ABUTH; type: in vivo, Abutilon theophrasti; details: pre-emergence, dosage 320 g/ha, scored visually after 3 weeks vs untreated controls
How it was run: as §1

VIOTR [22] = test: Pre-emergence action against VIOTR; type: in vivo, Viola tricolor; details: Dosage 320 g/ha, pre-emergence
How it was run: as §1

AVEFA [23] = test: Pre-emergence action against AVEFA; type: in vivo, Avena fatua; details: dosage 320 g/ha, scored visually after 3 weeks vs untreated controls
How it was run: as §1

AVEFA [24] = test: Post-emergence action against AVEFA; type: in vivo, Avena fatua; details: post-emergence, dosage 80 g/ha, visual assessment about 3 weeks after treatment vs untreated controls
Protocol: as §3

CCCn1nnnc1NC(=O)c1ccc(S(C)(=O)=O)c(C(=O)C2CC2)c1Cl [3-129]
Pre-emergence action against PHBPU (PHBPU [1]): 90%
Post-emergence action against MATIN (herbicidal action in percent) (MATIN [2]): 100%
SETVI (Table B8, pre-emergence herbicidal activity) (SETVI [3]): 100%
Post-emergence action against STEME (STEME [4]): 100
Post-emergence action against ECHCG (herbicidal action in percent) (ECHCG [5]): 100%
Post-emergence action against SETVI (herbicidal action in percent) (SETVI [6]): 100%
Post-emergence action against VIOTR (VIOTR [7]): 100
Post-emergence action against ABUTH (herbicidal action in percent) (ABUTH [8]): 90%
Post-emergence action against VERPE (VERPE [9]): 100
Pre-emergence action against VERPE (VERPE [10]): 100%
Pre-emergence action against STEME (STEME [11]): 100%
Post-emergence action against CYPES (herbicidal action in percent) (CYPES [12]): 80%
Pre-emergence action against ALOMY (herbicidal activity in percent) (ALOMY [13]): 90%
Pre-emergence action against AMARE (herbicidal activity) (AMARE [14]): 100%
Post-emergence action against AMARE (herbicidal action in percent) (AMARE [15]): 90%
Pre-emergence action against CYPES (herbicidal activity) (CYPES [16]): 90%
Post-emergence action against PHBPU (PHBPU [17]): 100
Pre-emergence action against ECHCG (herbicidal activity) (ECHCG [18]): 100%
Post-emergence action against ALOMY (ALOMY [19]): 90%
Pre-emergence action against MATIN (MATIN [20]): 100%
Pre-emergence action against ABUTH (herbicidal activity) (ABUTH [21]): 100%
Pre-emergence action against VIOTR (VIOTR [22]): 100%
Pre-emergence action against AVEFA (herbicidal activity) (AVEFA [23]): 100%
Post-emergence action against AVEFA (herbicidal action in percent) (AVEFA [24]): 90%

CSc1ccc(C(=O)Nc2nnnn2C)c(Cl)c1C(=O)C1CC1 [1-123]
pest or weed control at 80 g/ha (MATIN [2]; Tripleurospermum inodorum, 504 h, read-out: Post-emergence action against MATIN (herbicidal action in percent)): 100%
pest or weed control at 320 g/ha (SETVI [3]; Setaria viridis, 504 h, read-out: SETVI (Table B8, pre-emergence herbicidal activity)): 100%
pest or weed control at 80 g/ha (STEME [4]; Stellaria media, 504 h): 100%
pest or weed control at 80 g/ha (ECHCG [5]; Echinochloa crus-galli, 504 h, read-out: Post-emergence action against ECHCG (herbicidal action in percent)): 100%
pest or weed control at 80 g/ha (SETVI [6]; Setaria viridis, 504 h, read-out: Post-emergence action against SETVI (herbicidal action in percent)): 100%
pest or weed control at 80 g/ha (VIOTR [7]; Viola tricolor, 504 h): 100%
pest or weed control at 80 g/ha (ABUTH [8]; Abutilon theophrasti, 504 h, read-out: Post-emergence action against ABUTH (herbicidal action in percent)): 100%
pest or weed control at 80 g/ha (VERPE [9]; Veronica persica, 504 h): 100%
pest or weed control at 320 g/ha (VERPE [10]; Veronica persica, 504 h): 100%
pest or weed control at 320 g/ha (STEME [11]; Stellaria media, 504 h): 90%
pest or weed control at 320 g/ha (ALOMY [13]; Alopecurus myosuroides, 504 h, read-out: Pre-emergence action against ALOMY (herbicidal activity in percent)): 90%
pest or weed control at 320 g/ha (AMARE [14]; Amaranthus retroflexus, 504 h, read-out: Pre-emergence action against AMARE (herbicidal activity)): 100%
pest or weed control at 80 g/ha (AMARE [15]; Amaranthus retroflexus, 504 h, read-out: Post-emergence action against AMARE (herbicidal action in percent)): 100%
pest or weed control at 80 g/ha (PHBPU [17]; Ipomoea purpurea, 504 h): 90%
pest or weed control at 320 g/ha (ECHCG [18]; Echinochloa crus-galli, 504 h, read-out: Pre-emergence action against ECHCG (herbicidal activity)): 100%
pest or weed control at 80 g/ha (ALOMY [19]; Alopecurus myosuroides, 504 h): 80%
pest or weed control at 320 g/ha (MATIN [20]; Tripleurospermum inodorum, 504 h): 100%
pest or weed control at 320 g/ha (ABUTH [21]; Abutilon theophrasti, 504 h, read-out: Pre-emergence action against ABUTH (herbicidal activity)): 90%
pest or weed control at 320 g/ha (VIOTR [22]; Viola tricolor, 504 h): 100%
pest or weed control at 320 g/ha (AVEFA [23]; Avena fatua, 504 h, read-out: Pre-emergence action against AVEFA (herbicidal activity)): 80%
pest or weed control at 80 g/ha (AVEFA [24]; Avena fatua, 504 h, read-out: Post-emergence action against AVEFA (herbicidal action in percent)): 100%
